Laboratory results reported in PMC7700651 (International Journal of Molecular Sciences, 2020).
Bridge positions count the residues as written; N and C are the ends. Peptide text beside a SMILES is read from it.

T1: BTLA/HVEM complex (Homo sapiens, UniProt Q92956)
T1 construct: expressed in transfected cells; host or cells: Jurkat JE6.1 NFκB-eGFP reporter cells (HVEM); T cell stimulator cells from mouse thymoma BW5147 (BTLA)
T1 sequence (Q92956 39-283): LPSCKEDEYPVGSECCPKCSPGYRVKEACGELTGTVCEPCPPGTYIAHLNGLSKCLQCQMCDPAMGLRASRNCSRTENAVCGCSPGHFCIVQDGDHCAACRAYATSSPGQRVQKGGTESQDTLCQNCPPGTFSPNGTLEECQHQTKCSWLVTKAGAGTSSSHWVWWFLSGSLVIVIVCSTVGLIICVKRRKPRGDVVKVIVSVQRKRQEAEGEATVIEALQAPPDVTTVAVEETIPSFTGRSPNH

T2: BTLA/HVEM complex (Homo sapiens, UniProt Q92956)
T2 construct: His; purchased ACROBiosystems (HVEM-His); Novoprotein (BTLA-Fc) #HVM-H52E9; #CD06
T2 sequence (Q92956 39-202 limits assumed): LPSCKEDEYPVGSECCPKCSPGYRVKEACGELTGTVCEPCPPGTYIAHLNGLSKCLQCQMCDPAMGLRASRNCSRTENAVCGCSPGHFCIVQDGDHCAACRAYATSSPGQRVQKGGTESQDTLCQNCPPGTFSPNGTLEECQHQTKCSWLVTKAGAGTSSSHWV

T3: recombinant human HVEM with His tag (human, UniProt Q92956 39-202)
T3 construct: also called HVEM-His; herpesvirus entry mediator; source: bought: ACROBiosystems (#HVM-H52E9)
T3 sequence (looked up): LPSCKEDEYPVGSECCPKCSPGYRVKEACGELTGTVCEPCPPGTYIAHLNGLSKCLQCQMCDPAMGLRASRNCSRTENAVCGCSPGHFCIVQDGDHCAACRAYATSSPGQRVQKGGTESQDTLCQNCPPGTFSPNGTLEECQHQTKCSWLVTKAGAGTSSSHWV


How the values were obtained:
[1] = target: T1, BTLA/HVEM complex; experiment: Cell-based reporter assay (HVEM-expressing Jurkat NFκB-eGFP reporter cells stimulated with TCS-BTLA); conditions: 1.5 mg/mL; reporter cells pre-incubated 30 min with peptide, then TCS-BTLA 24 h; flow cytometry; three experiments in duplicate
From the text: To assess the capacities of the gD peptides to interfere with the BTLA/HVEM complex in a functional in vitro setting, reporter cells (NFκB-eGFP), which are based on the human Jurkat T cell line JE6.1 were transduced to express HVEM [34]. These reporter cells can be stimulated by T cell stimulator cells (TCS) expressing a membrane-bound anti-CD3 antibody fragment, which is able to engage the TCR-CD3 complex and thereby activate the NFκB pathway. In addition, to control TCS, TCS expressing the corresponding co-stimulatory ligand BTLA were generated in order to trigger HVEM in trans on the reporter cells (Figure S4). To validate the HVEM reporter system, control, and HVEM - expressing reporter cells were stimulated with control TCS and TCS expressing BTLA (Figure S4). Engagement of BTLA with HVEM induced high expression of NFκB-eGFP. To determine the inhibitory properties of the gD peptides, HVEM reporter cells were pre-incubated with the indicated peptides at different concentrations, followed by stimulation with control TCS or TCS-BTLA (Figure 4).
Figure 4 The inhibitory function of the peptides in a reporter cell-based assay. HVEM reporter cells were stimulated with TCS expressing BTLA in the absence or presence of the indicated gD peptides at concentrations of 1.5 mg/mL, 750 μg/mL, and 375 μg/mL. Reporter gene expression (NFκB-eGFP), upon stimulation with TCS-BTLA, was normalized to reporter activation after stimulation with TCS control in the presence of the respective peptides. BTLA/HVEM stimulation in the absence of peptides was set to 100% activation. Results are shown for three experiments performed independently in duplicate. Data are depicted as mean with SEM. * indicates statistically significant differences compared to full activation (100%), two-way ANOVA followed by Bonferroni’s post hoc test; p < 0.0001.
For functional assays, HVEM-expressing reporter cells (5 × 10^4 cells/well) were pre-incubated with different concentrations of gD peptides for 30 min in a 96 flat bottom plate. Control TCS or TCS expressing BTLA (2 × 10^4 cells/well) were subsequently added for 24 h at 37 °C with 5% CO2. After 24 h, the cells were harvested and stained with an mCD45.2 antibody to exclude TCS from the reporter cells. Expression of the reporter gene (eGFP) was then measured via flow cytometry. The mean and standard deviation of the gMFI of the viable population of reporter cells (mCD45.2+ stimulator cells were excluded) were determined. Each experiment was performed in duplicate.

[2] = target: T2, BTLA/HVEM complex; experiment: ELISA, inhibition of BTLA/HVEM complex formation; assay type: biochemical; conditions: peptides 1.5 to 0.375 mg/mL, 24 h, 37 °C; HVEM-His coated; BTLA-Fc 5 μg/mL
Method: ELISA tests were performed to check the inhibitory properties of the peptides. HVEM protein was first immobilized in microplates and then the peptides were added in three different concentrations and incubated with HVEM. Unbound peptides were then removed and BTLA-Fc protein was added. For the detection of BTLA-Fc protein, a goat anti-human IgG (H+L)-HRP conjugate and TMB (3,3’,5,5’-tetramethylbenzidine) were applied. As a positive control, anti-HVEM antibodies, which inhibit the BTLA/HVEM complex formation by about 50%, were used (Figure 3A and Figure S3). […] The inhibitory properties of the peptides were also studied for the complex HVEM/LIGHT, using the same procedure and conditions as described above, but with the application of LIGHT protein instead of BTLA protein. A significant increase in inhibitory properties was observed only for the anti-HVEM antibodies (positive control), which inhibited the HVEM/LIGHT binding by about 75% (Figure 3B and Figure S3). None of the tested peptides inhibited the formation of the LIGHT/HVEM complex (Figure 3B).
A 96-well Immunograde plate (Brand, Wertheim, Germany) was coated with 5 μg/mL of recombinant HVEM-His protein in PBS (100 μL/well) and incubated overnight at 4 °C. The plate was washed 5 times (200 μL/well) with PBS-T (5 mM Na2HPO4, 150 mM NaCl with the addition of 0.3 M NaCl and 0.05% Tween-20, pH 7.4) and blocked with 5% BSA in PBS-T for 2 h at 37 °C. The peptides were then titrated in triplicate from 1.5 to 0.375 mg/mL (100 µL/well) in PBS-T and incubated for 24 h at 37 °C. Maximum binding of HVEM to BTLA/LIGHT was determined by adding PBS-T to negative control wells, whereas maximum inhibition was measured by adding anti-HVEM (1 µg/well). The plate was then washed and incubated with recombinant BTLA-Fc/LIGHT-Fc protein at 5 μg/mL in PBS-T (100 μL/well) for 2 h at 37 °C. Goat anti-human IgG (H+L)-HRP conjugate (Bio-Rad, Hercules, CA, USA) antibody was then added (1:3000; 100 μL/well) and incubated for 1 h at 37 °C. Finally, BTLA-Fc/LIGHT-Fc was detected by the addition of 100 μL/well of TMB (Thermo Scientific, Waltham, MA, USA). Absorbance was measured using Infinite M200 Pro (Tecan Life Sciences, Männedorf, Switzerland) at 650 nm and 492 nm. […] ELISA tests were performed at least in triplicate. The data are presented as mean ± standard deviation (SD). The results were analyzed by one-way analysis of variance (ANOVA) followed by Dunnett’s post-hoc test using GraphPad Prism (San Diego, CA, USA).

[3] = target: T4, HVEM protein (Homo sapiens, UniProt Q92956); experiment: Affinity test: peptide on microcolumn with immobilized HVEM, fractions analysed by mass spectrometry; assay type: binding; conditions: for Interaction with HVEM protein in affinity test: microcolumn with immobilized HVEM, presence in elution fraction by mass spectrometry
T4 construct: His; purchased ACROBiosystems #HVM-H52E9
Method: Affinity tests were performed to confirm the interaction of the designed peptides with HVEM protein. The peptide was added to a microcolumn with immobilized HVEM protein, and binding was checked using mass spectrometry, according to a procedure described earlier.
The affinity tests were performed according to the procedure described in our previous paper. The MS spectrums were registered using a MALDI-TOF/TOF autoflex maX (Bruker, Billerica, MA, USA) mass spectrometer.

[4] = Stability of peptides in cell culture medium (RPMI1640 with 10% FCS), RP-HPLC; assay type: in vitro ADME; conditions: 37 °C, at least triplicate
From the text: A low stability in solution, which could be connected with many different processes such as aggregation, conformation changes, and chemical degradation, including deamidation and isomerization, oxidation, hydrolysis, and racemization, is a major concern for the therapeutic application of peptides. For the presented study, the stability of the peptides in PBS buffer and medium (solutions used in tests described above) was studied and determined using RP-HPLC. The analysis was done by comparing the area under the peaks in a control sample (peptide dissolved in water, time = 0) and a sample after incubation in PBS or medium.
200 µL of medium (RPMI1640 with 10% FCS)/human plasma was added to 50 µL of each peptide (1 mg/mL). The samples were incubated for different times (0, 2, 3, 6, and 24 h) at 37 °C. They were then precipitated by the addition 1 mL of absolute ethanol, incubated on ice for 15 min and centrifuged at 18,000 rpm for 20 min at 4 °C. The supernatants were collected and dried under vacuum. The samples were then resuspended in 120 µL of 0.1% TFA and analyzed by RP-HPLC under the same conditions as described for the determination of the stability of the peptides in PBS. All stability tests were performed at least in triplicate. Blood was obtained from donor volunteers and centrifuged in lithium/heparin tubes. EDTA was used as an anticoagulant.

[5] = target: T3, recombinant human HVEM with His tag; experiment: affinity purification with mass spectrometry; HVEM protein immobilised in a microcolumn; peptide added; supernatant, last wash and elution fractions analysed by MALDI-TOF/TOF MS; procedure of ref. 33; conditions: both partners purified

Row | Molecule | Capacity to interfere with BTLA/HVEM complex (reduction of NFκB-eGFP activation), in words [1] | Inhibitory properties for BTLA/HVEM complex formation (ELISA), in words [2] | Elution [M+H]+ (signal in elution fraction = binding to immobilized HVEM) ([3]; MALDI-TOF MS of elution fraction, binding confirmed if m/z signal present in elution and none in last wash, '-' = no signal) | Interaction with HVEM protein in affinity test [3] | metabolised at 24 h, 0.2 mg/mL ([4]; cell culture medium (RPMI1640 with 10% FCS), 200 µL + 50 µL peptide 1 mg/mL, 24 h, ethanol precipitation, read-out: Degradation in medium after 24 h) [%] | Stability in medium (and PBS), in words ([4]; up to 24 h) | binding result [5]
1 | CSCC[C@@H]1NC(=O)[C@H](CC(=O)O)NC(=O)[C@H](CC(C)C)NC(=O)[C@H](CC(C)C)NC(=O)[C@H](CC(=O)O)NC(=O)[C@H](C(C)C)NC(=O)[C@H](C)NC(=O)[C@H](C(C)C)NC(=O)CNC(=O)[C@H](CC(=O)O)NC(=O)[C@@H](NC(=O)CNC(=O)[C@H](CCCCN)NC(=O)[C@H](CO)NC(=O)[C@H](C)NC(=O)[C@H](CCCNC(=N)N)NC(=O)[C@H](CC(C)C)NC(=O)[C@@H]2CCCN2C(=O)[C@H](CCCNC(=N)N)NC(=O)[C@H](CC(=O)O)NC(C)=O)CSSC[C@@H](C(=O)N[C@@H](CC(C)C)C(=O)N[C@H](C(=O)N[C@@H](CC(C)C)C(=O)N[C@@H](CC(=O)O)C(=O)N[C@@H](Cc2ccccc2)C(=O)N[C@@H](C)C(=O)N[C@@H](CCCNC(=N)N)C(N)=O)C(C)C)NC(=O)[C@@H]2CCCN2C(=O)[C@H](CC(N)=O)NC(=O)[C@H](CCCCN)NC(=O)[C@H](CCC(N)=O)NC(=O)[C@H](CCCNC(=N)N)NC(=O)[C@@H]2CCCN2C(=O)[C@H](Cc2ccc(O)cc2)NC(=O)[C@@H]2CCCN2C1=O [gD(1-36)(K10C-T29C)^SCR, reference compound] (Ac-DRPLRASKGCDGVAVDLLDMPYPRQKNPCLVLDFAR-NH2; disulfide 10-29) | weak blocking effect | no effect | – | – | – | – | –
2 | CSCC[C@H](NC(=O)[C@H](CCCCN)NC(=O)[C@H](CC(C)C)NC(=O)[C@H](CO)NC(=O)[C@H](C)NC(=O)[C@H](CC(=O)O)NC(=O)[C@@H](NC(=O)[C@H](CC(C)C)NC(=O)[C@H](C)NC(=O)[C@H](Cc1ccc(O)cc1)NC(=O)[C@H](CCCCN)NC(C)=O)C(C)C)C(=O)N[C@@H](C)C(=O)N[C@@H](CC(=O)O)C(=O)N1CCC[C@H]1C(=O)N[C@@H](CC(N)=O)C(=O)N[C@@H](CCCNC(=N)N)C(=O)N[C@@H](Cc1ccccc1)C(=O)N[C@@H](CCCNC(=N)N)C(=O)NCC(=O)N[C@@H](CCCCN)C(=O)N[C@@H](CC(=O)O)C(=O)N[C@@H](CC(C)C)C(=O)N1CCC[C@H]1C(=O)N[C@H](C(=O)N[C@@H](CC(C)C)C(=O)N[C@@H](CC(=O)O)C(=O)N[C@@H](CCC(N)=O)C(=O)N[C@@H](CC(C)C)C(=O)N[C@H](C(=O)N[C@@H](CC(=O)O)C(=O)N1CCC[C@H]1C(=O)N1CCC[C@H]1C(=O)NCC(=O)N[C@H](C(=O)N[C@@H](CCCNC(=N)N)C(=O)N[C@@H](CCCNC(=N)N)C(N)=O)C(C)C)[C@@H](C)O)C(C)C [gD(1-36)] | weak blocking effect | did not prevent protein interaction | 4094.88 | binds to HVEM | ~50 | – | –
3 | Ac-ASLKMADPN-NH2 [gD(7-15)] | no effect | do not inhibit BTLA/HVEM complex formation | – | do not interact with HVEM protein | – | almost completely degraded | –
4 | Ac-DQLTDPP-NH2 [gD(26-32)] | weak blocking effect | do not inhibit BTLA/HVEM complex formation | – | do not interact with HVEM protein | – | – | –
5 | Ac-KYALVDASLKMADPNRFRGKDLPVLDQLTDPPGVRR-NH2 (source: synthetic peptide) [gD(1-36)] | – | – | – | – | – | – | binds
